Laboratory results from PubChem BioAssay (NCI).
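96-well plates; 48 h exposure; 5 concentrations. Endpoints by linear interpolation between flanking doses. Not reached: highest tested concentration assigned. GI50 is the concentration that inhibits growth by half. TGI denotes the concentration required for complete inhibition of growth.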

How the values were obtained:
Experiment in all cases: growth of human tumour cells (NCI), 48 h
[1] = tested on: 786-0 renal
[2] = tested on: A498 renal
[3] = tested on: A549 NSCLC
[4] = tested on: ACHN renal
[5] = tested on: BT-549 breast
[6] = tested on: CAKI-1 renal
[7] = tested on: CCRF-CEM leukemia
[8] = tested on: COLO 205 colon
[9] = tested on: DU-145 prostate
[10] = tested on: EKVX NSCLC
[11] = tested on: HCC-2998 colon
[12] = tested on: HCT-116 colon
[13] = tested on: HCT-15 colon
[14] = tested on: HL-60(TB) leukemia
[15] = tested on: HOP-62 NSCLC
[16] = tested on: HOP-92 NSCLC
[17] = tested on: HS 578T breast
[18] = tested on: HT29 colon
[19] = tested on: IGROV1 ovarian
[20] = tested on: K-562 leukemia
[21] = tested on: KM12 colon
[22] = tested on: LOX IMVI melanoma
[23] = tested on: M14 melanoma
[24] = tested on: MALME-3M melanoma
[25] = tested on: MCF7 breast
[26] = tested on: MDA-MB-231 breast
[27] = tested on: MDA-MB-435
[28] = tested on: MOLT-4 leukemia
[29] = tested on: NCI-H226 lung
[30] = tested on: NCI-H23 lung
[31] = tested on: NCI-H460 lung
[32] = tested on: NCI-H522 lung
[33] = tested on: NCI/ADR-RES ovarian
[34] = tested on: OVCAR-3 ovarian
[35] = tested on: OVCAR-4 ovarian
[36] = tested on: OVCAR-5 ovarian
[37] = tested on: OVCAR-8 ovarian
[38] = tested on: PC-3 prostate
[39] = tested on: RPMI-8226 leukemia
[40] = tested on: RXF 393 renal
[41] = tested on: SF-268 CNS
[42] = tested on: SF-295 CNS
[43] = tested on: SF-539 CNS
[44] = tested on: SK-MEL-2 melanoma
[45] = tested on: SK-MEL-28 melanoma
[46] = tested on: SK-MEL-5 melanoma
[47] = tested on: SK-OV-3 ovarian
[48] = tested on: SN12C renal
[49] = tested on: SNB-19 CNS
[50] = tested on: SNB-75 CNS
[51] = tested on: SR leukemia
[52] = tested on: SW-620 colon
[53] = tested on: T-47D breast
[54] = tested on: TK-10 renal
[55] = tested on: U251 CNS
[56] = tested on: UACC-257 melanoma
[57] = tested on: UACC-62 melanoma

## NC(N)=NCCN1CCCCCc2ccccc21
[1]
  TGI: > 10 µM
[2]
  TGI: > 10 µM
[3]
  TGI: > 10 µM
[4]
  TGI: > 10 µM
[5]
  TGI: > 10 µM
[6]
  TGI: > 10 µM
[7]
  TGI: > 10 µM
[8]
  TGI: > 10 µM
[9]
  TGI: > 10 µM
[10]
  TGI: > 10 µM
[11]
  TGI: > 10 µM
[12]
  TGI: > 10 µM
[13]
  TGI: > 10 µM
[14]
  TGI: > 10 µM
[15]
  TGI: > 10 µM
[16]
  TGI: > 10 µM
[17]
  TGI: > 10 µM
[18]
  TGI: > 10 µM
[19]
  TGI: > 10 µM
[20]
  TGI: > 10 µM
[21]
  TGI: > 10 µM
[22]
  TGI: > 10 µM
[23]
  TGI: > 10 µM
[24]
  TGI: > 10 µM
[25]
  TGI: > 10 µM
[26]
  TGI: > 10 µM
[27]
  TGI: > 10 µM
[28]
  TGI: > 10 µM
[29]
  TGI: > 10 µM
[30]
  TGI: > 10 µM
[31]
  TGI: > 10 µM
[32]
  TGI: > 10 µM
[33]
  TGI: > 10 µM
[34]
  TGI: > 10 µM
[35]
  TGI: > 10 µM
[36]
  TGI: > 10 µM
[37]
  TGI: > 10 µM
[38]
  TGI: > 10 µM
[39]
  TGI: > 10 µM
[40]
  TGI: > 10 µM
[41]
  TGI: > 10 µM
[42]
  TGI: > 10 µM
[43]
  TGI: > 10 µM
[44]
  TGI: > 10 µM
[45]
  TGI: > 10 µM
[46]
  TGI: > 10 µM
[47]
  TGI: > 10 µM
[48]
  TGI: > 10 µM
[49]
  TGI: > 10 µM
[50]
  TGI: > 10 µM
[51]
  TGI: > 10 µM
[52]
  TGI: > 10 µM
[53]
  TGI: > 10 µM
[54]
  TGI: > 10 µM
[55]
  TGI: > 10 µM
[56]
  TGI: > 10 µM
[57]
  TGI: > 10 µM

## COc1cc2c(cc1OCCCCCN1CCN(CCCCCOc3cc4c(cc3OC)C(=O)C3CCC[C@H]3C=N4)CC1)N=C[C@@H]1CCCC1C2=O (some centres not stated)
[1]
  GI50: 1.51 µM
  TGI: 4.64 µM
[2]
  GI50: 2.07 µM
  TGI: 5.48 µM
[3]
  GI50: 10.7 µM
  TGI: > 51.8 µM
[4]
  GI50: 18.9 µM
  TGI: > 100 µM
[5]
  GI50: 10.9 µM
  TGI: > 86.8 µM
[6]
  GI50: 27.5 µM
  TGI: > 81.4 µM
[7]
  GI50: 3.06 µM
  TGI: > 48.7 µM
[8]
  GI50: 2.67 µM
  TGI: 11.3 µM
[9]
  GI50: 12.9 µM
  TGI: > 100 µM
[10]
  GI50: 41.3 µM
  TGI: > 100 µM
[11]
  GI50: 2.18 µM
  TGI: 6.02 µM
[13]
  GI50: 52.9 µM
  TGI: > 100 µM
[14]
  GI50: 2.83 µM
  TGI: 7.15 µM
[15]
  GI50: > 100 µM
  TGI: > 100 µM
[16]
  GI50: 3.22 µM
  TGI: > 42.6 µM
[17]
  GI50: 5.63 µM
  TGI: > 68.7 µM
[18]
  GI50: 9.47 µM
  TGI: > 100 µM
[19]
  GI50: 3.88 µM
  TGI: > 25 µM
[20]
  GI50: 6.51 µM
  TGI: 28.4 µM
[21]
  GI50: 13.9 µM
  TGI: > 100 µM
[22]
  GI50: 3.07 µM
  TGI: > 100 µM
[23]
  GI50: 17.5 µM
  TGI: 80.9 µM
[24]
  GI50: 23 µM
  TGI: 47.7 µM
[25]
  GI50: 2.72 µM
  TGI: > 100 µM
[26]
  GI50: 3.84 µM
  TGI: > 100 µM
[27]
  GI50: 5.81 µM
  TGI: 39.9 µM
[28]
  GI50: 2.55 µM
  TGI: 7 µM
[29]
  GI50: 4.8 µM
  TGI: > 74.3 µM
[30]
  GI50: 3.72 µM
  TGI: > 21.1 µM
[31]
  GI50: 3.38 µM
  TGI: > 94.2 µM
[32]
  GI50: 1.76 µM
  TGI: > 100 µM
[33]
  GI50: > 100 µM
  TGI: > 100 µM
[34]
  GI50: 10.1 µM
  TGI: > 93.4 µM
[35]
  GI50: 42 µM
  TGI: > 100 µM
[36]
  GI50: 5.52 µM
  TGI: > 54.1 µM
[37]
  GI50: 7.89 µM
  TGI: > 37 µM
[38]
  GI50: 3.16 µM
  TGI: > 100 µM
[39]
  GI50: 1.84 µM
  TGI: 11.9 µM
[40]
  GI50: 2.23 µM
  TGI: 7.11 µM
[41]
  GI50: 3.51 µM
  TGI: > 100 µM
[42]
  GI50: 6.19 µM
  TGI: > 100 µM
[43]
  GI50: 9.82 µM
  TGI: > 79 µM
[44]
  GI50: 2.2 µM
  TGI: 5.26 µM
[45]
  GI50: 19.4 µM
  TGI: > 100 µM
[46]
  GI50: 3.34 µM
  TGI: 21.6 µM
[47]
  GI50: 43.2 µM
  TGI: > 100 µM
[49]
  GI50: > 39.4 µM
  TGI: > 100 µM
[50]
  GI50: 16.1 µM
  TGI: > 94.4 µM
[51]
  GI50: 2.97 µM
  TGI: 39.6 µM
[52]
  GI50: 2.51 µM
  TGI: 46.6 µM
[53]
  GI50: 6.89 µM
  TGI: > 100 µM
[54]
  GI50: 5.05 µM
  TGI: 14.6 µM
[55]
  GI50: 3.74 µM
  TGI: > 100 µM
[56]
  GI50: 9.73 µM
  TGI: > 46 µM
[57]
  GI50: 2.35 µM
  TGI: 7.87 µM
